Measured values: patent US12582624B2, “Co-crystal of gabapentin, ketoprofen and lysine, pharmaceutical compositions and their medical use” (DOMPÉ FARMACEUTICI S.P.A., priority 2020, dated 2026)

Tests used:
[1] = cited from earlier work
[2] = tested on: carrageenan-induced rat paw edema; experiment: Carrageenan-induced rat paw edema test; format: in vivo
Experimental: Inflammatory pain in rats induced by carrageenan intraplantar injection Male Wistar rats (270-280 g) (Envigo, Italy), were housed 2-3 per cage under controlled illumination (12:12 h light:dark cycle; light on 06.00 h) and standard environmental conditions (room temperature 22±1° C., humidity 60±10%) for at least 1 week before experimental use. Rat chow and tap water were available ad libitum. The procedures were approved by the Animal Ethics Committee of University of Campania “Luigi Vanvitelli”. Animal care was in compliance with Italian Legislative Decree (D.L. 116/92) and European Commission Directive (O.J. of E.C. L358/1, 18/12/86) regulations on the protection of laboratory animals. All efforts were made to minimize animal suffering and the number of animals used.
Peripheral inflammatory pain was induced in the left hind paw of each animal by a single intraplantar injection of 1% A-carrageenan (100 μl for each rat in 0.9% NaCl). […] Edema was expressed as the mean increase in paw volume (ml) relative to control animals. The percentage inhibition of edema was calculated by the following equation: % inhibition of edema=(Vc−Vt/Vc)×100, where Vc is the edema volume in the control group and Vt is the edema volume in treated group.

in vivo = conditions: male, Sprague Dawley, rat, po
From the text: Aim of the study was the determination of the brain penetration of Gabapentin in KLS-Gabapentin Co-crystal compared to the physical mixture of KLS and so Gabapentin and Gabapentin alone after administration in capsules in the rats.
Sprague Dawley male rat (body weights 310 gr at the time of the treatment) were used in this study. The animals were originally supplied by Harlan, Italy. Once receipt from the supplier, the animals were subjected to health examinations and acceptance. The animals were housed, in a group of three, in cages suitable for the species and were routinely kept in the following environment except for short periods of time where experimental procedures dictated otherwise. The animals were acclimatized to local housing conditions for approximately 5 days.
The experimental protocol consisted in the blood and brain tissue sampling on the animals according to the following Tables 12 and 13 and analysis of samples as described below.
Stock solutions of Ketoprofen and Gabapentin were prepared at 1 mg/mL in MeOH and a mix stock solution was prepared by dilution of the two mentioned before to reach a final concentration of 100 μg/mL of each analyte. Stock solutions of DF1681Y and Gabapentin Impurity A were prepared respectively at 2 mg/mL and 1 mg/mL in MeOH. A mixture of the two was prepared in ACN with a final so concentration of 5000 and 500 ng/mL respectively (mix IS). […]

[3] = cited from earlier work; remark: listed apart in the source
[4] = in vivo; cited from earlier work

SMILES | pKa [1] | Activity on inflammatory pain ([2]; Carrageenan inflammatory rat model) | Effect on carrageenan-evoked edema ([2]; FIGS. 13 and 15, oral, rat) | Kp at 2 h (in vivo) | Time to utmost level in plasma ([3]; after oral administration) [h] | Plasma protein binding ([3]; in vivo) | Excretion half-life ([3]; renal excretion) | Side effect: ataxia [4] [%] | Side effect: dizziness [4] [%] | Side effect: fatigue [4] [%] | Side effect: somnolence [4] [%]
CC(C(=O)O)c1cccc(C(=O)c2ccccc2)c1 (racemic) [Ketoprofen, (RS)-2-(3-benzoylphenyl)-propionic acid] | 4.08 | – | – | – | – | – | – | – | – | – | –
NCC1(CC(=O)O)CCCCC1 [Gabapentin] | – | little active | less effective | 0.378 | 3 to 4 | does not attach to plasma proteins | roughly 6 hours | 13 | 18 | 11 | 20
